This note sets out measurements from patent USRE31731E, “Herbicidal 4-trifluoromethyl-4-nitrodiphenyl ethers” (priority 1978, dated 1984).

Molecules are shown by their SMILES.

Common to all, as to type: in vivo
The test system of data set [1] is cotton. The data set is described as follows: Crop tolerance, cotton. Conditions: 50% or less kill of crop at rates giving more than 50% kill of weeds. The protocol: (§1) The following test procedure is employed. Seeds of selected crops and weeds are planted in soil in flats. For preemergence tests, the flats are treated with the test compound immediately after the planting. For postemergence tests, the seeds are allowed to germinate, and after 2 weeks the flats are treated with the test compound. The compound to be evaluated is dissolved in acetone, diluted with water, and sprayed over the flats using a carrier volume equivalent to 50 gallons per acre at the rate of application (pounds per acre, lb/A.) specified in the tables. About 2 weeks after the application of the test compound, the state of growth of the plants is observed and the phytotoxic effect of the compound is evaluated. Table II gives the average percent control achieved by the test compounds in terms of the percent of the plants which are killed by the compounds.
(§2) Following the general test procedure of Example 73, diphenyl ethers are evaluated for significant tolerance (as shown by 50% or less kill of the test crop at levels of application which give more than 50% kill of many or all of the weeds of Example 73) towards some or all of the following common agronomic crops (not all compounds tested against all crops): alfalfa, snapbeans, corn, cotton, cucumbers, peanuts, rape, rice, safflower, soybeans, tomatoes, and wheat.

Data set [2] has as its system Dicots. Kind of data set: Herbicidal activity, postemergence, dicot weeds (Table II). Conditions: post-emergence, 336 h, about 2 weeks, read-out: % control (percent of plants killed); for pest or weed control at 4483.4 g/ha: 4 lb./A.; for pest or weed control at 2241.7 g/ha: 2 lb./A. The method, boiled down: (§3)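 Plants were scored roughly 2 weeks post-treatment for percent kill (average percent control). Treatment was an acetone–water spray in 50 gal/acre carrier at the listed pounds per acre, applied either immediately after sowing or to 2-week-old seedlings.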

The test system of data set [3] is rice. Kind of data set: Crop tolerance, rice. Conditions: 50% or less kill of crop at rates giving more than 50% kill of weeds. How it is done: as §1, §2
Data set [4] deals with Monocots. Kind of data set: Herbicidal activity, postemergence, monocot weeds (Table II). As to conditions: post-emergence, 336 h, about 2 weeks, read-out: % control (percent of plants killed); for pest or weed control at 4483.4 g/ha: 4 lb./A.; for pest or weed control at 2241.7 g/ha: 2 lb./A. The method, boiled down:
(§4)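 Value is mean percent kill, judged roughly 2 weeks post-treatment. Acetone/water spray at 50 gal/A, given either right after sowing in soil flats (preemergence) or once seedlings were 2 weeks old (postemergence); rates in lb/A.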

Data set [5] concerns Monocots. Kind of data set: Herbicidal activity, preemergence, monocot weeds (Table II). As to conditions: pre-emergence, 336 h, about 2 weeks, read-out: % control (percent of plants killed); for pest or weed control at 4483.4 g/ha: 4 lb./A.; for pest or weed control at 2241.7 g/ha: 2 lb./A. The method, boiled down:
as §4

Data set [6] concerns Dicots. Kind of data set: Herbicidal activity, preemergence, dicot weeds (Table II). As to conditions: pre-emergence, 336 h, about 2 weeks, read-out: % control (percent of plants killed); for pest or weed control at 4483.4 g/ha: 4 lb./A.; for pest or weed control at 2241.7 g/ha: 2 lb./A. The method, boiled down: as §3
Data set [7] deals with soybeans. Kind of data set: Crop tolerance, soybeans. As to conditions: 50% or less kill of crop at rates giving more than 50% kill of weeds. How it is done:
as §1, §2

The subject of data set [8] is peanuts. Kind of data set: Crop tolerance, peanuts. As to conditions: 50% or less kill of crop at rates giving more than 50% kill of weeds. The protocol:
as §1, §2

Data set [9] concerns safflower. Kind of data set: Crop tolerance, safflower. Conditions: preemergence; 50% or less kill of crop at rates giving more than 50% kill of weeds. The protocol: as §1, §2
In data set [10] the test system is corn. Kind of data set: Crop tolerance, corn. As to conditions: 50% or less kill of crop at rates giving more than 50% kill of weeds. The protocol: as §1, §2
The test system of data set [11] is wheat. The data set is described as follows: Crop tolerance, wheat. As to conditions: 50% or less kill of crop at rates giving more than 50% kill of weeds. The protocol: as §1, §2
Data set [12] deals with snapbeans. The data set is described as follows: Crop tolerance, snapbeans. As to conditions: preemergence; 50% or less kill of crop at rates giving more than 50% kill of weeds. The protocol:
as §1, §2

Setting [13] is: postemergence or on transplanted rice.

As to `CCOc1cc(Oc2ccc(C(F)(F)F)cc2Cl)ccc1[N+](=O)[O-]` [Example 3, 2-Chloro-α,α,α-trifluoro-p-tolyl-3-ethoxy-4-nitrophenyl ether], the Tolerance to cotton result in [1] (postemergence or layby) and in data set [1] (preemergence) was “Tolerance” in each case. The pest or weed control at 4483.4 g/ha in data set [2] was determined as 100%; in [4] it was 99%; in [5] it was 89%; in data set [6], 99%. The pest or weed control at 11208.5 g/ha turned out to be 100% in data set [2] (10 lb./A.), 100% in data set [4] (10 lb./A.), 99% in data set [5] (10 lb./A.) and 100% in data set [6] (10 lb./A.). Besides, in data set [3] (setting [13]), the Tolerance to rice result is “Tolerance”. Further, the Tolerance to soybeans result in [7] (postemergence or layby) and in data set [7] (preemergence) was “Tolerance” throughout. In data set [8] (preemergence), the Tolerance to peanuts result was “Tolerance”. The Tolerance to safflower result in [9] is listed as “Tolerance”.

Consider `CC(C)Oc1cc(Oc2ccc(C(F)(F)F)cc2Cl)ccc1[N+](=O)[O-]` [Example 4], for which the Tolerance to cotton entry in data set [1] (preemergence) is “Tolerance”. Besides, the pest or weed control at 4483.4 g/ha amounted to 100% in data set [2], 80% in [4], 98% in [5] and 100% in data set [6]. In addition, the Tolerance to rice result in data set [3] (preemergence) was “Tolerance”. Besides, the Tolerance to corn result in data set [10] (postemergence) and in [10] (preemergence) was “Tolerance” each time. Further, the Tolerance to wheat entry in data set [11] (postemergence) and in data set [11] (preemergence) was “Tolerance” throughout. In addition, the Tolerance to soybeans result in data set [7] (preemergence) is given as “Tolerance”. The Tolerance to peanuts result in data set [8] (postemergence) is “Tolerance”. In data set [12], the Tolerance to snapbeans result is listed as “Tolerance”.

Turning to `CCOC(=O)C(C)Oc1cc(Oc2ccc(C(F)(F)F)cc2Cl)ccc1[N+](=O)[O-]` (stereo not drawn) [Example 26, 2-Chloro-α,α,α-trifluoro-p-tolyl-3-(1-carbethoxyethoxy)-4-nitrophenyl ether], the pest or weed control at 2241.7 g/ha in [2] is 100%; in data set [4] it was 93%; in [5] it was 75%; in data set [6] it was 99%. The pest or weed control at 4483.4 g/ha in [2] came out at 100%; in data set [4], 99%; in data set [5] it was 98%; in data set [6] it was 100%. Moreover, the Tolerance to corn entry in [10] (postemergence) was “Tolerance”. Moreover, the Tolerance to wheat result in [11] (preemergence) is reported as “Tolerance”. Further, the Tolerance to soybeans result in data set [7] (preemergence) is on record as “Tolerance”. The Tolerance to snapbeans result in data set [12] is reported as “Tolerance”.

As to `C#CC(C)Oc1cc(Oc2ccc(C(F)(F)F)cc2Cl)ccc1[N+](=O)[O-]` (stereo not shown) [Example 30], the Tolerance to cotton entry in data set [1] (preemergence) is reported as “Tolerance”. Besides, the pest or weed control at 2241.7 g/ha in [2] amounted to 100%; in [4], 91%; in data set [5], 78%; in data set [6], 94%. Further, the pest or weed control at 4483.4 g/ha in data set [2] came out at 100%; in data set [4], 75%; in [5], 81%; in data set [6], 99%. Further, the Tolerance to rice result in [3] (setting [13]) and in [3] (preemergence) was “Tolerance” in each case. Besides, the Tolerance to wheat entry in data set [11] (postemergence) is “Tolerance”. In addition, the Tolerance to soybeans result in data set [7] (preemergence) was “Tolerance”. Besides, the Tolerance to peanuts entry in [8] (preemergence) is listed as “Tolerance”.

With `CCN(CCO)c1cc(Oc2ccc(C(F)(F)F)cc2Cl)ccc1[N+](=O)[O-]` [Example 54], the pest or weed control at 2241.7 g/ha in [2] worked out at 100%; in data set [4], 71%; in [5], 98%; in data set [6], 98%. For the same compound, the pest or weed control at 4483.4 g/ha in [2] is 100%; in data set [4] it was 79%; in data set [5], 83%; in data set [6], 75%. The Tolerance to rice result in data set [3] (setting [13]) and in data set [3] (preemergence) was “Tolerance” each time. In addition, the Tolerance to corn result in data set [10] (postemergence) and in data set [10] (preemergence) was “Tolerance” throughout. For the same compound, the Tolerance to wheat entry in data set [11] (postemergence) and in data set [11] (preemergence) was “Tolerance” each time. In addition, the Tolerance to soybeans entry in data set [7] (preemergence) is listed as “Tolerance”. In data set [8] (postemergence), the Tolerance to peanuts result is reported as “Tolerance”.
